“Also recorded” adds a separate entry of the source.
Key:
Format in all cases: cell-based, human
[1] = tested on: Raji, BL2, Jurkat cell lines and activated PBL; experiment: Apoptosis % by loss of mitochondrial membrane potential
Protocol: 2 to 4.10^4 cells were deposited in wells in a 96-well plate. The cells were incubated, in the presence of the different reactants for the times specified, at 37° C. in a final volume of 100 or 200 μl. The apoptotic cells were identified in the cellular populations by measuring mitochondrial de-polarisation. […] These potentiometric probes allowed monitoring the variations of the mitochondrial membrane potential. […] Following cell treatment with the different drugs, the former were placed in the presence of TMRM or DIOC6 at 10 nM concentration, for 20 minutes at 37° C. then the fluorescence of the cells was analysed by flow cytometry.

[2] = tested on: DISC macro-complex (Fas/FADD/Caspase-8); experiment: DISC formation: Fas immunoprecipitation and Western blot; conditions: vs untreated cells
Protocol: Cells were incubated with 1 μg/ml APO1-3 for 30 minutes at 4° C. After washing, cells were incubated for 15 minutes at 4° C. (0 minutes) or at 37° C. (15 minutes) and then lysed for 30 minutes at 4° C. in a lysis buffer (25 mM HEPES pH 7.4, 1% Triton X-100, 150 mM NaCl, 2 mM EDTA, a cocktail including protease inhibitors (Sigma)). The lysed cells were then centrifugated for 15 minutes at 15000 rpm in order to eliminate genomic DNA, and the supernatant was kept. The sepharose beads which were coupled with protein A were added to the lysate and the mixture was incubated for 2 hours. The beads were recovered, washed intensively and the immunoprecipitated proteins were re-suspended in a denaturing and reducing buffer (0.01M Tris-HCl pH6.8, 10% glycerol (v/v), 85 mM sodium dodecyl sulfate (SDS), 5% (v/v) […] and 0.005% (w/v) bromophenol blue) then heated at 100° C. for 5 minutes. The samples were deposited in an acrylamide/Bisacrylamide gel and separated by electrophoresis. The proteins were transferred from the gel into a nitrocellulose membrane using a semi-dry medium transfer technique for 2 hours at constant amperage (0.8 mA/cm^2). […] After transfer, the nitrocellulose membrane was saturated with proteins for 30 minutes with a TBST buffer (50 mM Tris pH=8, 0.15M sodium chloride, 0.05% (v/v) Tween-20) containing 5% (w/v) skimmed powdered milk (TBSTM). After washing with TBST, the membrane was incubated for 2 hours with the primary antibody in TBST. The membrane was washed intensively then incubated for one hour with TBST containing the secondary peroxidase-coupled antibody. […] This solution contained a substrate metabolised by peroxidase to yield a luminescent compound, which allowed marking a radiographic film (Amersham).

[3] = tested on: CD95; experiment: CD95 capping (CD95-CAP), fluorescence confocal microscopy; conditions: leukemic cell lines; culture up to 24 hours
Protocol: The cells were left to adhere on a slide pre-treated with poly-L-lysin (ESCO, VWR) for 5 minutes then incubated with the different reactants. The cells activated with the anti-Fas APO1-3 agonist antibody were washed and marked directly with the anti-mouse secondary antibody coupled with Alexa555 fluorochrome. The cells incubated with Rituximab (anti-CD20) were washed in a cold PBS buffer then fixed with a PBS/4% PFA (paraformaldehyde) solution for 15 min. […] The cells were washed in PBS medium then the slide was dried and the cells were placed in a mounting medium, Fluoroprep (Biomerieux) and analysed by fluorescence confocal microscopy (LSM SP5, Leica, Germany) with an x63 zoom. The DAPI (200 ng/ml) allowed colouring the nuclei.

[4] = tested on: T and B leukemia/lymphoma cell lines and activated PBLs treated with FasL; experiment: Fas/CD95-mediated cell death (MTT test)
Protocol: 2 to 4.10^4 cells were deposited in wells in a 96-well plate. The cells were incubated, in the presence of the different reactants for the times specified, at 37° C. in a final volume of 100 or 200 μl.
The MTT test enabled to measure the activity of a mitochondrial enzyme, the dehydrogenase succinate which transforms MTT (or 3-(4,5-dimethylthiazol-2-yl)-2,5-diphenyltetrazolium) bromide originally yellow in colour and soluble, into blue formazan crystals, insoluble in aqueous phase. Upon completion of the different treatments, the living cells were quantified by adding in each well 15 μl PBS (Phosphate Buffered Saline) containing 5 mg/ml MTT. […] Spectrophotometric reading of absorbance was done at 570 nm. The measurement of the optical density is directly proportional to the number of living cells and the percentage of cell death was calculated with the following formula: 100-[(DO treated cells/DO non-treated cells)*100].

[5] = tested on: CD95; experiment: CD95 aggregation by size exclusion chromatography; conditions: Jurkat cells; BAPTA-AM pre-treatment
Excerpt: In order to validate that CD95 underwent aggregation upon down-modulation of intracellular calcium, the formation the micrometer-sized CD95-containing domain was investigated by using size exclusion chromatography (FIG. 10). Decrease in intracellular calcium allowed the redistribution of a significant proportion of CD95 into heavy weighted fractions (FIG. 10), which confirmed that the slight down-modulation of [Ca^2+]i led to the formation of cluster of CD95. It was also observed that calcium-driven CD95-CAP occurred independently of de novo expression of CD95L since no trace of the membrane-bound ligand was detected. […] Since CD95 clustering is an early step of the CD95 molecular ordering, the impact of intracellular calcium on the initial events of CD95 pathway and on cell death was further assessed.

## CC(=O)OCOC(=O)CN(CC(=O)OCOC(C)=O)c1ccccc1OCCOc1ccccc1N(CC(=O)OCOC(C)=O)CC(=O)OCOC(C)=O [BAPTA-AM, 1,2-bis-(o-Aminophenoxy)ethane-N,N,N′,N′-tetraacetic tetra-(acetoxymethyl) acid Ester]
[1]; B lymphoma cell lines, BAPTA-AM 1 μM pre-incubation
  potentiation of apoptotic signals mediated by edelfosine or Rituximab: allowed potentiating apoptotic signals
[1]; BL2 cell line, deprived of Fas receptor, Rituximab resistant
  apoptotic signal with Rituximab associated with BAPTA-AM: no increase in the apoptotic signal has been observed
[2]; H9, Jurkat, activated PBTs, non-cytotoxic concentrations
  DISC formation / FADD recruitment upon CD95 stimulation: dramatically improved the DISC formation; also recorded: induction of DISC formation
[2]; H9 cells, BAPTA-AM 1-10 μM or ionomycine 1 μM pre-incubation, then anti-Fas APO1-3 1 μg/ml 15 min 37° C.
  formation of the DISC macro-complex: enhanced formation of the DISC macro-complex
[3]
  CD95-CAP formation: drives CD95-CAP
[4]; BAPTA-AM 1 μM pre-incubation then FasL, leukemia/lymphoma cell lines and activated PBLs
  sensitisation to the Fas-mediated apoptotic signal (% cell death): sensitised to the Fas-mediated apoptotic signal; also recorded: increase in percentage of cell death
[4]; BAPTA-AM 1 μM then FasL, BL2 cell line devoid of endogenous Fas
  sensitisation to the Fas-mediated apoptotic signal (% cell death): have not been sensitised
[4]; Jurkat-CD95Q257K, pre-incubation with non-cytotoxic doses
  CD95-mediated apoptotic signal in CD95-resistant cells: restored the CD95-mediated apoptotic signal at a level comparable to the parental cell line
[4]; leukemic cell lines, long-term culture up to 24 hours, no CD95L
  apoptotic signal by the agent alone: did not trigger the apoptotic signal
[5]
  CD95 aggregation: formation of the CD95 aggregation
